According to patent US9695155B2, “Herbicidal substituted pyrimidinyloxy benzene compounds” (E. I. DU PONT DE NEMOURS AND COMPANY, priority 2013, dated 2017):

Legend:
palmer pigweed = experiment: Test E postemergence; type: in vivo, Amaranthus palmeri
Description: Seeds of plant species selected from corn (Zea mays), soybean (Glycine max), velvetleaf (Abutilon theophrasti), lambsquarters (Chenopodium album), wild poinsettia (Euphorbia heterophylla), palmer pigweed (Amaranthus palmeri), waterhemp (common waterhemp, Amaranthus rudis), surinam grass (Brachiaria decumbens), large (Lg) crabgrass (Digitaria sanguinalis), Brazilian crabgrass (Digitaria horizontalis), fall panicum (Panicum dichotomiflorum), giant foxtail (Setaria faberii), green foxtail (Setaria viridis), goosegrass (Eleusine indica), johnsongrass (Sorghum halepense), ragweed (common ragweed, Ambrosia elatior), barnyardgrass (Echinochloa crus-galli), sandbur (southern sandbur, Cenchrus echinatus), arrowleaf sida (Sida rhombifolia), Italian ryegrass (Lolium multiflorum), dayflower (Virginia (VA) dayflower, Commelina virginica), field bindweed (Convolvulus arvensis), morningglory (Ipomoea coccinea), nightshade (eastern black nightshade, Solanum ptycanthum), kochia (Kochia scoparia), yellow nutsedge (Cyperus esculentus), cocklebur (common cocklebur, Xanthium strumarium), smartweed (ladysthumb smartweed, and hairy beggarticks (Bidens pilosa), were planted into a silt loam soil and treated preemergence with test chemicals formulated in a non-phytotoxic solvent mixture which included a surfactant.
At the same time, plants from these crop and weed species and also horseweed (Canada horseweed, Conyza canadensis), waterhemp_RES1, (ALS & Triazine resistant common waterhemp, Amaranthus rudis), and waterhemp_RES2, (ALS & HPPD resistant common waterhemp, Amaranthus rudis) were planted in pots containing Redi-Earth® planting medium (Scotts Company, 14111 Scottslawn Road, Marysville, Ohio 43041) comprising spaghnum peat moss, vermiculite, wetting agent and starter nutrients were treated with postemergence applications of test chemicals formulated in the same manner. Plants ranged in height from 2 to 18 cm for postemergence treatments (1- to 4-leaf stage). Treated plants and controls were maintained in a greenhouse for 14 to 21 days, after which time all species were compared to controls and visually evaluated. Plant response ratings, summarized in Table E, are based on a scale of 0 to 100 where 0 is no effect and 100 is complete control. A dash (-) response means no test result.

goosegrass [1] = experiment: Test C postemergence; type: in vivo, Eleusine indica; conditions: for Plant response rating (0 to 100), Goosegrass: postemergence; for Plant response rating, Goosegrass: Postemergence, scale 0 to 100 (0 no effect, 100 complete control)
Description: (§1) Seeds of plant species selected from blackgrass (Alopecurus myosuroides), Italian ryegrass (Lolium multiflorum), wheat, winter (winter wheat, Triticum aestivum), galium (catchweed bedstraw, Galium aparine), corn (Zea mays), large (Lg) crabgrass (Digitaria sanguinalis), giant foxtail (Setaria faberii), johnsongrass (Sorghum halepense), lambsquarters (Chenopodium album), morningglory (Ipomoea coccinea), yellow nutsedge (Cyperus esculentus), pigweed (Amaranthus retroflexus), ragweed (common ragweed, Ambrosia elatior), soybean (Glycine max), barnyardgrass (Echinochloa crus-galli), oilseed rape (Brassica napus), waterhemp (common waterhemp, Amaranthus rudis), kochia (Kochia scoparia), wild oat (Avena fatua), surinam grass (Brachiaria decumbens), foxtail, green (green foxtail, Setaria viridis), goosegrass (Eleusine indica), bromegrass, downy (downy bromegrass, Bromus tectorum), nightshade (eastern black nightshade, Solanum ptycanthum), cocklebur (common cocklebur, Xanthium strumarium), cupgrass, woolly (woolly cupgrass, Eriochloa villosa), bermudagrass (Cynodon dactylon), sunflower, (common oilseed sunflower, Helianthus annuus), Russian thistle (Salsola kali), and velvetleaf (Abutilon theophrasti) were planted into a blend of loam soil and sand and treated preemergence with test chemicals formulated in a non-phytotoxic solvent mixture which included a surfactant.
(§2) At the same time, plants selected from these crop and weed species and also barley, winter (winter barley, Hordeum vulgare), windgrass (Apera spica-venti), chickweed (common chickweed, Stellaria media), deadnettle (henbit deadnettle, Lamium amplexicaule), and canarygrass (littleseed canarygrass, Phalaris minor) were planted in pots containing Redi-Earth® planting medium (Scotts Company, 14111 Scottslawn Road, Marysville, Ohio 43041) comprising spaghnum peat moss, vermiculite, wetting agent and starter nutrients and treated with postemergence applications of test chemicals formulated in the same manner. Plants ranged in height from 2 to 18 cm (1- to 4-leaf stage) for postemergence treatments. Treated plants and controls were maintained in a greenhouse for 13 to 15 days, after which time all species were compared to controls and visually evaluated. Plant response ratings, summarized in Table C, are based on a scale of 0 to 100 where 0 is no effect and 100 is complete control. A dash (-) response means no test result.

cupgrass, woolly [2] = experiment: Test C postemergence; type: in vivo, Eriochloa villosa; conditions: for Plant response rating (0 to 100), Cupgrass, Woolly: postemergence; for Plant response rating, Cupgrass, Woolly: Postemergence, scale 0 to 100 (0 no effect, 100 complete control)
Description: as §1, §2

bermudagrass [3] = experiment: Test C postemergence; type: in vivo, Cynodon dactylon; conditions: for Plant response rating (0 to 100), Bermudagrass: postemergence; for Plant response rating, Bermudagrass: Postemergence, scale 0 to 100 (0 no effect, 100 complete control)
Description: as §1, §2

wild oat = experiment: Test C preemergence; type: in vivo, Avena fatua; conditions: for Oat, Wild plant response rating: preemergence, scale 0 (no effect) to 100 (complete control)
Description: as §1, §2

foxtail, green = experiment: Test C preemergence; type: in vivo, Setaria viridis; conditions: for Foxtail, Green plant response rating: preemergence, scale 0 (no effect) to 100 (complete control)
Description: as §1, §2

goosegrass [4] = experiment: Test C preemergence; type: in vivo, Eleusine indica; conditions: for Goosegrass plant response rating: preemergence, scale 0 (no effect) to 100 (complete control)
Description: as §1, §2

bromegrass, downy = experiment: Test C preemergence; type: in vivo, Bromus tectorum; conditions: for Bromegrass, Downy plant response rating: preemergence, scale 0 (no effect) to 100 (complete control)
Description: as §1, §2

cocklebur = experiment: Test C preemergence; type: in vivo, Xanthium strumarium; conditions: preemergence, scale 0 (no effect) to 100 (complete control)
Description: as §1, §2

cupgrass, woolly [5] = experiment: Test C preemergence; type: in vivo, Eriochloa villosa; conditions: for Cupgrass, Woolly plant response rating: preemergence, scale 0 (no effect) to 100 (complete control)
Description: as §1, §2

bermudagrass [6] = experiment: Test C preemergence; type: in vivo, Cynodon dactylon; conditions: for Bermudagrass plant response rating: preemergence, scale 0 (no effect) to 100 (complete control)
Description: as §1, §2

sunflower = experiment: Test C preemergence; type: in vivo, Helianthus annuus; conditions: for Sunflower plant response rating: preemergence, scale 0 (no effect) to 100 (complete control)
Description: as §1, §2

[7] = Preemergence, 31 g ai/ha, scale 0 to 100, 0 no effect, 100 complete control

With `Clc1cnc(Oc2cccc(Br)c2-n2cc(Br)cn2)nc1` [Compound 65] the “Plant response rating, Pigweed, Palmer” value (palmer pigweed; Postemergence, 31 g ai/ha, scale 0 to 100) was 50, the “Plant response rating, Pigweed, Palmer” value (palmer pigweed; Postemergence, 62 g ai/ha, scale 0 to 100) was 50 and the “Plant response rating, Pigweed, Palmer” value (palmer pigweed; Postemergence, 125 g ai/ha, scale 0 to 100) was 60. For the same molecule, the “Plant response rating, Pigweed, Palmer” value (palmer pigweed; postemergence, 8 g ai/ha, scale 0 to 100, 0 no effect, 100 complete control) was 10 and the “Plant response rating, Pigweed, Palmer” value (palmer pigweed; postemergence, 16 g ai/ha, scale 0 to 100, 0 no effect, 100 complete control) was 20.
`Fc1cnc(Oc2ccccc2-n2cc(Br)cn2)nc1` [Compound 10, 2-[2-(4-bromo-1H-pyrazol-1-yl)phenoxy]-5-fluoropyrimidine] was tested, and the “Plant response rating (0 to 100), Goosegrass” value (goosegrass [1]; 125 g ai/ha) was 5, the “Plant response rating (0 to 100), Goosegrass” value (goosegrass [1]; 250 g ai/ha) was 10 and the “Plant response rating, Goosegrass” value (goosegrass [1]; 31 g ai/ha, 13 to 15 days) was 0. For the same molecule, the “Plant response rating, Goosegrass” value (goosegrass [1]; 62 g ai/ha) was 5, the “Plant response rating (0 to 100), Cupgrass, Woolly” value (cupgrass, woolly [2]; 125 g ai/ha) was 5 and the “Plant response rating (0 to 100), Cupgrass, Woolly” value (cupgrass, woolly [2]; 250 g ai/ha) was 15. For the same molecule, the “Plant response rating, Cupgrass, Woolly” value (cupgrass, woolly [2]; 31 g ai/ha, 13 to 15 days) was 0, the “Plant response rating, Cupgrass, Woolly” value (cupgrass, woolly [2]; 62 g ai/ha) was 5 and the “Plant response rating (0 to 100), Bermudagrass” value (bermudagrass [3]; 125 g ai/ha) was 5. The “Plant response rating (0 to 100), Bermudagrass” value (bermudagrass [3]; 250 g ai/ha) was 50, the “Plant response rating, Bermudagrass” value (bermudagrass [3]; 31 g ai/ha, 13 to 15 days) was 0 and the “Plant response rating, Bermudagrass” value (bermudagrass [3]; 62 g ai/ha) was 5. It also gave a pest or weed control at 31 g/ha (palmer pigweed; post-emergence, Postemergence, 31 g ai/ha, scale 0 to 100, read-out: Plant response rating, Pigweed, Palmer) of 70%, a pest or weed control at 62 g/ha (palmer pigweed; post-emergence, Postemergence, 62 g ai/ha, scale 0 to 100, read-out: Plant response rating, Pigweed, Palmer) of 75% and a pest or weed control at 125 g/ha (palmer pigweed; post-emergence, Postemergence, 125 g ai/ha, scale 0 to 100, read-out: Plant response rating, Pigweed, Palmer) of 85%. The pest or weed control at 250 g/ha (palmer pigweed; post-emergence, Postemergence, 250 g ai/ha, scale 0 to 100, read-out: Plant response rating, Pigweed, Palmer) was 95% and the pest or weed control at 16 g/ha (palmer pigweed; post-emergence, postemergence, 16 g ai/ha, scale 0 to 100, 0 no effect, 100 complete control, read-out: Plant response rating, Pigweed, Palmer) was 60%.
With `FC(F)(F)c1cnn(-c2ccccc2Oc2ncc(Br)cn2)c1` [Compound 18, 5-bromo-2-[2-[4-(trifluoromethyl)-1H-pyrazol-1-yl]phenoxy]pyrimidine] the “Oat, Wild plant response rating” value (wild oat; 62 g ai/ha) was 50, the “Oat, Wild plant response rating” value (wild oat; 125 g ai/ha) was 80 and the “Oat, Wild plant response rating” value (wild oat; 250 g ai/ha) was 85. The “Plant response rating, Oat, Wild” value (wild oat; [7]) was 0, the “Foxtail, Green plant response rating” value (foxtail, green; 62 g ai/ha) was 90 and the “Foxtail, Green plant response rating” value (foxtail, green; 125 g ai/ha) was 90. The “Foxtail, Green plant response rating” value (foxtail, green; 250 g ai/ha) was 90, the “Plant response rating, Foxtail, Green” value (foxtail, green; [7]) was 85 and the “Goosegrass plant response rating” value (goosegrass [4]; 62 g ai/ha) was 85. For the same molecule, the “Goosegrass plant response rating” value (goosegrass [4]; 125 g ai/ha) was 95, the “Goosegrass plant response rating” value (goosegrass [4]; 250 g ai/ha) was 100 and the “Plant response rating, Goosegrass” value (goosegrass [4]; [7]) was 75. For the same molecule, the “Bromegrass, Downy plant response rating” value (bromegrass, downy; 62 g ai/ha) was 10, the “Bromegrass, Downy plant response rating” value (bromegrass, downy; 125 g ai/ha) was 50 and the “Bromegrass, Downy plant response rating” value (bromegrass, downy; 250 g ai/ha) was 95. For the same molecule, the “Plant response rating, Bromegrass, Downy” value (bromegrass, downy; [7]) was 0, the “Cocklebur plant response rating” value (cocklebur; 62 g ai/ha) was 0 and the “Cocklebur plant response rating” value (cocklebur; 250 g ai/ha) was 15. For the same molecule, the “Cupgrass, Woolly plant response rating” value (cupgrass, woolly [5]; 62 g ai/ha) was 55, the “Cupgrass, Woolly plant response rating” value (cupgrass, woolly [5]; 125 g ai/ha) was 98 and the “Cupgrass, Woolly plant response rating” value (cupgrass, woolly [5]; 250 g ai/ha) was 100. The “Plant response rating, Cupgrass, Woolly” value (cupgrass, woolly [5]; [7]) was 40, the “Bermudagrass plant response rating” value (bermudagrass [6]; 62 g ai/ha) was 98 and the “Bermudagrass plant response rating” value (bermudagrass [6]; 125 g ai/ha) was 98. For the same molecule, the “Bermudagrass plant response rating” value (bermudagrass [6]; 250 g ai/ha) was 100, the “Plant response rating, Bermudagrass” value (bermudagrass [6]; [7]) was 95 and the “Sunflower plant response rating” value (sunflower; 62 g ai/ha) was 0. For the same molecule, the “Sunflower plant response rating” value (sunflower; 125 g ai/ha) was 0, the “Sunflower plant response rating” value (sunflower; 250 g ai/ha) was 40 and the “Plant response rating, Sunflower” value (sunflower; [7]) was 0.
